Assays:
[1] = system: Colletotrichum gloeosporioides; assay: Kirby-Bauer disk diffusion test, Colletotrichum gloeosporioides; settings: for EFFICACY W (Abbot): control W=0, no growth W=100
Method: (§1) The microbiological tests were carried out by applying Kirby-Bauer Disk Diffusion Susceptibility Test Protocol for antimicrobial activity. It is based on the formation of a concentration gradient in the growth medium during the diffusion of the active substance from the antibiogram disc (Kirby-Bauer method).
(§2) The performance of the embodiments of the present inventions and their mixtures enriched with millbase (MFA) was analysed against the appropriate reference substance, i.e., a commercial product containing the analogue active substance with the same concentration. The prepared solutions were applied on the paper antibiograms. Then the soaked antibiograms were placed on the Petri Dishes (dish diameter 90 mm) with the growth medium for fungal pathogens V8. Composition of V8: agar, calcium carbonate and multi-vegetable juice. 3 fragments of mycelium of the tested pathogen (5×5 mm) were transplanted onto the prepared medium. As a result, the zones where the fungal growth was inhibited have been measured and compared respectively with the control sample and the analogue active substance sample.
(§3) Assessment was carried out by determining the infested area of the Petri dish in %. These percentages have been converted into efficacy (W) according to Abbot's formula as follows: W=(1−α/β)×100 • where: • α—corresponds to the mycelium/bacterial growth of each tested sample [%], • β—corresponds to the mycelium/bacterial growth in control sample [%].
(§4) In order to estimate if the combined action effect with the commercial fungicide, the W parameter of the mixture was compared with W parameter for particular commercial fungicide solo. Where W=0 the efficacy of the control sample (whole Petri dish covered with mycelium), and W=100 is when no mycelium growth observed.

[2] = system: Venturia inaegualis; assay: Kirby-Bauer disk diffusion test, Venturia inaequalis; settings: for EFFICACY W (Abbot): control W=0, no growth W=100
Method: as §1, §2, §3, §4

[3] = system: Botrytis cinerea; assay: Kirby-Bauer disk diffusion test, Botrytis cinerea; settings: for % mycelium growth relative to the control / mycelium growth: V8 medium; for mycelium growth: control 8.6 cm; for EFFICACY W (Abbot): control W=0, no growth W=100
Method: as §2, §3, §4

[4] = system: Monilinia fructigena; assay: Kirby-Bauer disk diffusion test, Monilinia fructigena; settings: for % mycelium growth relative to the control / mycelium growth: V8 medium; for mycelium growth: control 5.4 cm; for EFFICACY W (Abbot): control W=0, no growth W=100
Method: as §2, §3, §4

[5] = system: Phytophthora megasperma; assay: Kirby-Bauer disk diffusion test, Phytophthora megasperma; settings: for EFFICACY W (Abbot): control W=0, no growth W=100
Method: as §1, §2, §3, §4

[6] = system: Phytophthora cactorum; assay: Kirby-Bauer disk diffusion test, Phytophthora cactorum; design: % mycelium growth relative to the control: concentration or dose not given beside the values; settings: for % mycelium growth relative to the control / mycelium growth: V8 medium; for mycelium growth: control 5.4 cm; for EFFICACY W (Abbot): control W=0, no growth W=100
Method: as §2, §3, §4

[7] = system: Phytium ultimum; assay: Kirby-Bauer disk diffusion test, Phytium ultimum
Method: as §2, §3, §4

[8] = system: Fusarium oxysporum; assay: Kirby-Bauer disk diffusion test, Fusarium oxysporum
Method: as §1, §2, §3, §4

[9] = system: Alternaria infectoria/alternata; assay: Kirby-Bauer disk diffusion test, Alternaria infectoria/alternata; settings: for % mycelium growth relative to the control / mycelium growth: V8 medium; for mycelium growth: control 8.6 cm; for EFFICACY W (Abbot): control W=0, no growth W=100
Method: as §2, §3, §4

[10] = system: Sclerotinia sclerotiorum; assay: Kirby-Bauer disk diffusion test, Sclerotinia sclerotiorum; settings: for % mycelium growth relative to the control / mycelium growth: V8 medium; for mycelium growth: control 8.6 cm; for EFFICACY W (Abbot): control W=0, no growth W=100
Method: as §2, §3, §4

[11] = system: Septoria tritici; assay: Kirby-Bauer disk diffusion test, Septoria tritici
Method: as §2, §3, §4

[12] = system: Septoria nodorum (1291); assay: Kirby-Bauer disk diffusion test, Septoria nodorum (1291)
Method: as §2, §3, §4

[13] = system: Rhizoctonia solani; assay: Kirby-Bauer disk diffusion test, Rhizoctonia solani; settings: for % mycelium growth relative to the control / mycelium growth: V8 medium; for mycelium growth: control 8.6 cm; for EFFICACY W (Abbot): control W=0, no growth W=100
Method: as §2, §3, §4

[14] = system: Fusarium equiseti; assay: Kirby-Bauer disk diffusion test, Fusarium equiseti; settings: for % mycelium growth relative to the control / mycelium growth: V8 medium; for mycelium growth: control 8.6 cm; for EFFICACY W (Abbot): control W=0, no growth W=100
Method: as §2, §3, §4

[15] = system: Fusarium graminearum
[16] = system: Verticillium longisporum; assay: Kirby-Bauer disk diffusion test, Verticillium longisporum
Method: as §2, §3, §4

[17] = Colletotrichum gloeosporioides, V8 medium
[18] = Colletotrichum gloeosporioides, V8 medium, control 5.4 cm
[19] = Venturia inaegualis, V8 medium, control 2.9 cm
[20] = Phytophthora megasperma, V8 medium
[21] = Phytophthora megasperma, V8 medium, control 5.4 cm (8.6 cm in Table 25)

O=C1C2CC=CCC2C(=O)N1SC(Cl)(Cl)Cl (stereo not drawn) [Captan (1500)]
% mycelium growth relative to the control [1, 17]: 11%
mycelium growth [1, 18]: 0.6 cm
EFFICACY W (Abbot) ([1]; Colletotrichum gloeosporioides): 89
% mycelium growth relative to the control ([2]; Venturia inaegualis, V8 medium): 38%
mycelium growth [2, 19]: 1.1 cm
EFFICACY W (Abbot) ([2]; Venturia inaegualis): 62
% mycelium growth relative to the control [3]: 70%
mycelium growth [3]: 6 cm
EFFICACY W (Abbot) [3]: 30
% mycelium growth relative to the control [4]: 33%
mycelium growth [4]: 1.8 cm
EFFICACY W (Abbot) [4]: 67

Cc1ccc(-c2c(Cl)nc(C#N)n2S(=O)(=O)N(C)C)cc1 [Cyazofamid (80)]
% mycelium growth relative to the control [5, 20]: 100%
mycelium growth [5, 21]: 5.4 cm
EFFICACY W (Abbot) ([5]; Phytophthora megasperma): 0
% mycelium growth relative to the control [6]: 63%
mycelium growth [6]: 3.4 cm
EFFICACY W (Abbot) [6]: 37
% mycelium growth relative to the control ([7]; V8 medium): 66%
mycelium growth ([7]; V8 medium, control 8.6 cm): 5.7 cm
EFFICACY W (Abbot) ([7]; control W=0, no growth W=100): 76

CCCCCCCCCCCCNC(=N)N [Dodine, dodine, reference compound]
activity at 680000 µg/mL ([2]; Venturia, dodine 680 g/L, read-out: % mycelium growth relative to the control): 55%
inhibition of growth at 680000 µg/mL (stock) ([2]; Venturia, dodine 680 g/L, read-out: EFFICACY W (Abbot)): 45%
mycelium growth ([2]; dodine 680 g/L): 1.6 cm

O=C(NCCc1ncc(C(F)(F)F)cc1Cl)c1ccccc1C(F)(F)F [Fluopyram (500)]
% mycelium growth relative to the control ([8]; Fusarium oxysporum, V8 medium): 100%
mycelium growth ([8]; Fusarium oxysporum, V8 medium, control 8.6 cm): 8.6 cm
EFFICACY W (Abbot) ([8]; Fusarium oxysporum, control W=0, no growth W=100): 0
% mycelium growth relative to the control [5, 20]: 65%
mycelium growth [5, 21]: 3.5 cm
EFFICACY W (Abbot) ([5]; Phytophthora megasperma): 35
% mycelium growth relative to the control ([2]; Venturia inaegualis, V8 medium): 0%
mycelium growth [2, 19]: 0 cm
EFFICACY W (Abbot) ([2]; Venturia inaegualis): 100
% mycelium growth relative to the control [9]: 55%
mycelium growth [9]: 4.7 cm
EFFICACY W (Abbot) [9]: 45
% mycelium growth relative to the control [10]: 100%
mycelium growth [10]: 8.6 cm
EFFICACY W (Abbot) [10]: 0
% mycelium growth relative to the control ([11]; V8 medium): 0%
mycelium growth ([11]; V8 medium, control 1.9 cm): 0 cm
EFFICACY W (Abbot) ([11]; control W=0, no growth W=100): 100
% mycelium growth relative to the control ([12]; V8 medium): 61%
mycelium growth ([12]; V8 medium, control 5.4 cm): 3.3 cm
EFFICACY W (Abbot) ([12]; control W=0, no growth W=100): 39
% mycelium growth relative to the control [13]: 100%
mycelium growth [13]: 8.6 cm
EFFICACY W (Abbot) [13]: 0
% mycelium growth relative to the control [14]: 79%
mycelium growth [14]: 6.8 cm
EFFICACY W (Abbot) [14]: 21
% mycelium growth relative to the control ([15]; V8 medium): 66%
mycelium growth ([15]; V8 medium, control 8.6 cm): 5.7 cm
EFFICACY W (Abbot) ([15]; control W=0, no growth W=100): 34
% mycelium growth relative to the control [6]: 72%
mycelium growth [6]: 3.9 cm
EFFICACY W (Abbot) [6]: 28
% mycelium growth relative to the control [4]: 30%
mycelium growth [4]: 1.6 cm
EFFICACY W (Abbot) [4]: 70
% mycelium growth relative to the control ([16]; V8 medium): 95%
mycelium growth ([16]; V8 medium, control 3.9 cm): 3.7 cm
EFFICACY W (Abbot) ([16]; control W=0, no growth W=100): 5

c1ccc2[nH]c(-c3cscn3)nc2c1 [Thiabendazole, thiabendazole, reference compound]
activity at 500000 µg/mL ([1]; Colletotrichum gloeosporioides, thiabendazole 500 g/L, read-out: % mycelium growth relative to the control): 0%
inhibition of growth at 500000 µg/mL ([1]; Colletotrichum gloeosporioides, thiabendazole 500 g/L, read-out: EFFICACY W (Abbot)): 100%
mycelium growth ([1]; thiabendazole 500 g/L): 0 cm
activity at 500000 µg/mL ([8]; Fusarium oxysporum, thiabendazole 500 g/L, read-out: % mycelium growth relative to the control): 84%
inhibition of growth at 500000 µg/mL ([8]; Fusarium oxysporum, thiabendazole 500 g/L, read-out: EFFICACY W (Abbot)): 16%
mycelium growth ([8]; thiabendazole 500 g/L): 7.2 cm
activity at 500000 µg/mL ([5]; Phytophthora megasperma, thiabendazole 500 g/L, read-out: % mycelium growth relative to the control): 48%
inhibition of growth at 500000 µg/mL ([5]; Phytophthora megasperma, thiabendazole 500 g/L, read-out: EFFICACY W (Abbot)): 52%
mycelium growth ([5]; thiabendazole 500 g/L): 2.6 cm

O=[N+]([O-])c1cc(C(F)(F)F)c(Cl)c([N+](=O)[O-])c1Nc1ncc(C(F)(F)F)cc1Cl [fluazinam (200)]
% mycelium growth relative to the control [1, 17]: 0%
mycelium growth [1, 18]: 0 cm
EFFICACY W (Abbot) ([1]; Colletotrichum gloeosporioides): 100
% mycelium growth relative to the control [9]: 40%
mycelium growth [9]: 3.4 cm
EFFICACY W (Abbot) [9]: 60
% mycelium growth relative to the control [10]: 100%
mycelium growth [10]: 8.6 cm
EFFICACY W (Abbot) [10]: 0
% mycelium growth relative to the control [3]: 100%
mycelium growth [3]: 8.6 cm
EFFICACY W (Abbot) [3]: 0
% mycelium growth relative to the control [13]: 100%
mycelium growth [13]: 8.6 cm
EFFICACY W (Abbot) [13]: 0
% mycelium growth relative to the control [14]: 80%
mycelium growth [14]: 6.9 cm
EFFICACY W (Abbot) [14]: 20
% mycelium growth relative to the control [6]: 33%
mycelium growth [6]: 1.8 cm
EFFICACY W (Abbot) [6]: 67
% mycelium growth relative to the control [4]: 0%
mycelium growth [4]: 0 cm
EFFICACY W (Abbot) [4]: 100
